In test [1] the test system is rat toes edema caused by carrageenan. In words: Rat toes edema caused by carrageenan. It counts as in vivo, Male Wistar rats. The conditions noted are these: 25 mg/kg i.p., 7 days. The method, then: Experimental animal: Male Wistar rats. Body weights are about 200 g.
Method of administration: intraperitoneal injection. The dose of compound 1, 2, or 3 is 12 mg/kg, respectively. The negative control used 0.5% CMC; the positive control used ibuprofen, with a dose of 25 mg/kg.
Method of experiment: The animals were divided randomly into […] based on their body weights, […]. The 4 groups were negative control group, positive control group, compound 1 group, compound 2 group, and compound 3 group. The animals were administered daily for 7 continuous days. On Day 7, the aponeurosis of right hind toes were injected with 0.1 ml of 1% carrageenan 30 minutes after the administration. The edema of the toes at different time points after induction of the inflammation was then measured.

The subject of test [2] is acute inflammation of mice ear caused by dimethylbenzene. Briefly: Mice ear inflammation caused by dimethylbenzene. The class given is in vivo, Kunming mice. Conditions: 25 mg/kg i.p., 4 days; 2 h after dimethylbenzene; n=10. How it is done:
Experimental animal: Kunming mice, body weight 18-22 g.
Method of administration: intraperitoneal injection. The doses of wedelolactone were 12.5 mg/kg and 25 mg/kg, respectively; the negative control used 0.5% CMC; the positive control used ibuprofen (25 mg/kg).
Method of experiment: The animals were divided randomly into 4 groups based on their body weights, 10 mice each group. The mice were administered with the test compound for 4 continuous days. On Day 4, both sides of the right ears of the mice were daubed evenly with 50 μl dimethylbenzene 2 hours after the administration. The left ears were not treated. The mice were left for 2 hours and then sacrificed by cervical dislocation. The ear specimens were obtained by punching both ears with a 8 mm hole-puncher. The specimens were weighed and the differences between the left and the right ears were used to evaluate the effect of the compound on the inflammation.

For test [3], the system named is adjuvant-induced arthritis of rats. Briefly: Adjuvant-induced arthritis of rats. It counts as in vivo, Male Wistar rats. How it is done:
Experimental animal: Male Wistar rats. Body weights were about 150 g.
Method of administration: intraperitoneal injection. The dose of wedelolactone was 0.25 mg/kg or 12.5 mg/kg, prepared in 0.5% CMC. The dose of methotrexate (MTX) is 0.2 mg/kg.
Method of experiment: The animals were divided randomly into 4 groups based on their body weights. They were adapted for 3 days before experiments. The left hind planta of the rats were injected subcutaneously with 0.1 ml CFA emulsion to induce inflammation. On the Day 10, after the administration of the adjuvant, the rats were injected intraperitoneally with 5 ml/kg test compound wedelolactone for 19 continuous days. On and after the day of administration of the adjuvant, the change of thickness of the four rat paws was measured daily using a vernier caliper, and the volume of the back paw were measured using a Plethysmometer. The data from day 5, 10, 15, and 19 after administration were used for statistic analyses.

Setting [4] is: 0.2 mg/kg i.p., day 5 after administration.
Where [5] appears, read: 0.2 mg/kg i.p., day 5 after administration, adjuvant-injected paw.
[6] abbreviates: 0.2 mg/kg i.p., day 10 after administration.
The mark [7] stands for this setting: 0.2 mg/kg i.p., day 10 after administration, adjuvant-injected paw.
Setting [8] is: 0.2 mg/kg i.p., day 15 after administration.
The mark [9] stands for this setting: 0.2 mg/kg i.p., day 15 after administration, adjuvant-injected paw.
Setting [10] is: 0.2 mg/kg i.p., day 19 after administration.
The mark [11] stands for this setting: 0.2 mg/kg i.p., day 19 after administration, adjuvant-injected paw.

`CC(C)Cc1ccc(C(C)C(=O)O)cc1` (stereo not shown) [ibuprofen]: the “Edema index (ml) after induction of the inflammation, 1 h” value in test [1] (1 h) worked out at 0.31 ± 0.06 mL. Further, in test [1] (2 h), the “Edema index (ml) after induction of the inflammation, 2 h” value stood at 0.38 ± 0.10 mL. For the same compound, the “Edema index (ml) after induction of the inflammation, 4 h” value in test [1] (4 h) was 0.42 ± 0.11 mL. In addition, the “Edema index (ml) after induction of the inflammation, 6 h” value in test [1] (6 h) came to 0.39 ± 0.06 mL. Besides, in test [1] (24 h), the “Edema index (ml) after induction of the inflammation, 24 h” value was determined as 0.37 ± 0.07 mL. The “Difference (mg) between left and right ear” value in test [2] was determined as 11.4 ± 3.6 mg.

Regarding `CN(Cc1cnc2nc(N)nc(N)c2n1)c1ccc(C(=O)N[C@@H](CCC(=O)O)C(=O)O)cc1` [MTX, methotrexate, reference compound], in test [3] (setting [4]), the “Left front paw thickness, Day 5” value came out at 4.14 ± 0.14 mm; the “Right front paw thickness, Day 5” value was determined as 4.00 ± 0.10 mm; the “Right hind paw thickness, Day 5” value amounted to 4.89 ± 0.23 mm; the “Right hind paw volume, Day 5” value stood at 1.09 ± 0.07 mL. In test [3] (setting [5]), the “Left hind paw thickness, Day 5” value was found to be 6.96 ± 1.97 mm and the “Left hind paw volume, Day 5” value amounted to 1.68 ± 0.32 mL. Also, in test [3] (setting [6]), the “Left front paw thickness, Day 10” value is reported as 3.96 ± 0.10 mm; the “Right front paw thickness, Day 10” value worked out at 3.84 ± 0.10 mm; the “Right hind paw thickness, Day 10” value was 4.87 ± 0.18 mm; the “Right hind paw volume, Day 10” value amounted to 1.00 ± 0.10 mL. Besides, in test [3] (setting [7]), the “Left hind paw thickness, Day 10” value amounted to 7.44 ± 1.42 mm and the “Left hind paw volume, Day 10” value was 1.73 ± 0.23 mL. In test [3] (setting [8]), the “Left front paw thickness, Day 15” value was 4.04 ± 0.10 mm; the “Right front paw thickness, Day 15” value was found to be 4.07 ± 0.13 mm; the “Right hind paw thickness, Day 15” value is reported as 5.04 ± 0.28 mm; the “Right hind paw volume, Day 15” value amounted to 1.17 ± 0.11 mL. In addition, in test [3] (setting [9]), the “Left hind paw thickness, Day 15” value came out at 7.86 ± 1.36 mm and the “Left hind paw volume, Day 15” value is 1.93 ± 0.34 mL. In addition, in test [3] (setting [10]), the “Left front paw thickness, Day 19” value worked out at 4.09 ± 0.11 mm; the “Right front paw thickness, Day 19” value was 4.00 ± 0.12 mm; the “Right hind paw thickness, Day 19” value was found to be 4.90 ± 0.08 mm; the “Right hind paw volume, Day 19” value is 1.19 ± 0.09 mL. Further, in test [3] (setting [11]), the “Left hind paw thickness, Day 19” value amounted to 7.51 ± 1.40 mm and the “Left hind paw volume, Day 19” value was found to be 1.84 ± 0.26 mL. In addition, the “Primary inflammation of the left foot and secondary inflammation of the right foot (FIG. 2)” value in test [3] (treated with MTX) is “alleviated”.

Source of the values: US20070129426A1, “Therapeutic drugs for arthritis” (Shanghai Ambrosia Pharmaceutical Co., Ltd., priority 2003, published 2007).
